This is an account of results in patent US10568879B2 (GALAPAGOS NV, priority 2015, dated 2020).

This assay concerns the target T1, GPR84 (Homo sapiens, UniProt Q9NQS5).
T1 construct: expressed in transfected cells
Briefly: GPR84 [35S]GTPγS binding assay. The assay is classed as biochemical. As to conditions: 3,3′-diindolylmethane at EC80; membranes from stable cell line over expressing GPR84. The procedure: The following assay can be used for determination of GPR84 activation. The [^35S]GTPγS binding assay measures the level of G protein activation following agonist occupation of a GPCR, by determining the binding of the non-hydrolysable analog [^35S]GTPγS to Gα subunits.
The assay is performed in a 96-well plate where the following reagents are added. First 50 μL compound is added into the assay plate, followed by addition of 20 μL 3,3′-diindolylmethane at EC80 concentration (concentration which gives 80% of the activity of GPR84). Then, 30 μL of a mixture consisting of membranes-GTPγS-SpA beads is added [mixture consists of 20 μg/well membranes derived from stable cell line over expressing GPR84 (membranes are pre-incubated with 0.1 μM GDP for 15 min at 4° C.), 0.1 nM [^35S]GTPγS (Perkin Elmer, NEG030) and 0.5 mg/well PVT-WGA SpA beads (Perkin Elmer, RPNQ0001)]. All components are diluted in assay buffer containing 20 mM Tris pH 7.5; 5 mM MgCl2; 250 mM NaCl; 0.05% BSA; 75 μg/mL saponin. After an incubation of 90 min at room temperature, 20 μL CsCl2 0.8 M (MP Biomedicals, 02150589) is added, followed by centrifugation at 2000 rpm during 20 min. Plates are read on a topcount reader (perkin elmer) immediately after centrifugation (readout time, 1 min/well).

For orientation: IC50 means the concentration needed to halve the response being measured.

T1 sequence (Q9NQS5 whole entry): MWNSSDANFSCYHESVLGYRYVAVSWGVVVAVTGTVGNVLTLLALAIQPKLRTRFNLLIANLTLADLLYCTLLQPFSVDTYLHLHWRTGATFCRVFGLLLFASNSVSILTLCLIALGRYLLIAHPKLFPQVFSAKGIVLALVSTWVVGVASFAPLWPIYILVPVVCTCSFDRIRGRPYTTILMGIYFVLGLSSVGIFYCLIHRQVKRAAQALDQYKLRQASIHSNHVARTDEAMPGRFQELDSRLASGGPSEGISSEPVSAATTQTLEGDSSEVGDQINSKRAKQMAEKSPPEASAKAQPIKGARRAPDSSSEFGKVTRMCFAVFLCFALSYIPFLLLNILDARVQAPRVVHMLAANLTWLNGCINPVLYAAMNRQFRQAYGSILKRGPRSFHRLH

`COc1cc2c(cc1OC)-c1c(C)c(=O)cc(NCC3CCCO3)n1CC2` (centres unmarked) [Compound 2, 9,10-dimethoxy-1-methyl-4-(tetrahydrofuran-2-ylmethylamino)-6,7-dihydrobenzo[a]quinolizin-2-one] came in with an IC50 greater than 1000 nM.
In turn, `CCc1c2n(c(NCC3CCCO3)cc1=O)CCc1cc(O)ccc1-2` (centres unmarked) [Compound 3, 1-ethyl-9-hydroxy-4-(tetrahydrofuran-2-ylmethylamino)-6,7-dihydrobenzo[a]quinolizin-2-one] displayed an IC50 greater than 1000 nM.
As to `COc1cc2c(cc1OC)-c1cc(=O)cc(NCC3COCCO3)n1CC2` (centres unmarked) [Compound 5, 4-[([1,4]Dioxan-2-ylmethyl)-amino]-9,10-dimethoxy-6,7-dihydro-pyrido[2,1-a]isoquinolin-2-one], the IC50 was greater than 1000 nM.
On to `Cc1c2n(c(OCC3CCCO3)cc1=O)CCc1cc(OCC3CCCOC3)ccc1-2` (centres unmarked) [Compound 47, 1-methyl-4-(tetrahydrofuran-2-ylmethoxy)-9-(tetrahydropyran-3-ylmethoxy)-6,7-dihydrobenzo[a]quinolizin-2-one], for which the IC50 fell in the range of 0.01 to 100 nM.
In turn, `Cc1c2n(c(OCC3CCCO3)cc1=O)CCc1cc(OCCN(C)C)ccc1-2` (centres unmarked) [Compound 53, 9-(2-dimethylaminoethyloxy)-1-methyl-4-(tetrahydrofuran-2-ylmethoxy)-6,7-dihydrobenzo[a]quinolizin-2-one] registered an IC50 greater than 1000 nM.
In the case of `Cc1c2n(c(OCC3CCCCO3)cc1=O)CCc1cc(OCCN(C)C)ccc1-2` (centres unmarked) [Compound 54, 9-(2-dimethylaminoethyloxy)-1-methyl-4-(tetrahydropyran-2-ylmethoxy)-6,7-dihydrobenzo[a]quinolizin-2-one], the IC50 lay in the range of 500 to 1000 nM.
As for `Cc1c2n(c(OC[C@@H]3COCCO3)cc1=O)CCc1cc(OCCN(C)C)ccc1-2` [Compound 55, 9-(2-dimethylaminoethyloxy)-4-[[(2S)-1,4-dioxan-2-yl]methoxy]-1-methyl-6,7-dihydrobenzo[a]quinolizin-2-one], the half-inhibitory concentration (IC50) is 500 to 1000 nM.
Next, `Cc1c2n(c(OC[C@@H]3COCCO3)cc1=O)CCc1cc(OS(C)(=O)=O)ccc1-2` [Compound 56, [4-[[(2S)-1,4-dioxan-2-yl]methoxy]-1-methyl-2-oxo-6,7-dihydrobenzo[a]quinolizin-9-yl] methanesulfonate]: 100 to 500 nM.
On to `Cc1c2n(c(OC[C@@H]3CCCO3)cc1=O)CCc1cc(OCc3ccccn3)ccc1-2` [Compound 57, 1-methyl-9-(2-pyridylmethoxy)-4-[[(2S)-tetrahydrofuran-2-yl]methoxy]-6,7-dihydrobenzo[a]quinolizin-2-one], for which the IC50 lay in the range of 0.01 to 100 nM.
In turn, `Cc1c2n(c(OC[C@@H]3COCCO3)cc1=O)CCc1cc(OC(F)F)ccc1-2` [Compound 59, 9-(difluoromethoxy)-4-[[(2S)-1,4-dioxan-2-yl]methoxy]-1-methyl-6,7-dihydrobenzo[a]quinolizin-2-one] returned an IC50 of 0.01 to 100 nM.
`Cc1c2n(c(OC[C@@H]3COCCO3)cc1=O)CCc1cc(OC[C@@H]3COCCO3)ccc1-2` [Compound 62, 4,9-bis[[(2S)-1,4-dioxan-2-yl]methoxy]-1-methyl-6,7-dihydrobenzo[a]quinolizin-2-one] displayed an IC50 of 0.01 to 100 nM.
The compound `Cc1c2n(c(OC[C@@H]3COCCO3)cc1=O)CCc1cc(Sc3ccccc3)ccc1-2` [Compound 64, 4-[[(2S)-1,4-dioxan-2-yl]methoxy]-1-methyl-9-phenylsulfanyl-6,7-dihydrobenzo[a]quinolizin-2-one] had an IC50 of 0.01 to 100 nM.
Turning to `Cc1c2n(c(OC[C@@H]3COCCO3)cc1=O)CCc1cc(N3CCNCC3)ccc1-2` [Compound 66, 4-[[(2S)-1,4-dioxan-2-yl]methoxy]-1-methyl-9-piperazin-1-yl-6,7-dihydrobenzo[a]quinolizin-2-one], the IC50 is greater than 1000 nM.
Compound `Cc1c2n(c(OC[C@@H]3COCCO3)cc1=O)CCc1cc(S(=O)(=O)c3ccccc3)ccc1-2` [Compound 67, 9-(benzenesulfonyl)-4-[[(2S)-1,4-dioxan-2-yl]methoxy]-1-methyl-6,7-dihydrobenzo[a]quinolizin-2-one] had an IC50 of 100 to 500 nM.
With `Cc1c2n(c(OC[C@@H]3COCCO3)cc1=O)CCc1cc(N3CCN(S(C)(=O)=O)CC3)ccc1-2` [Compound 68], the IC50 is 0.01 to 100 nM.
The compound `Cc1c2n(c(OC[C@@H]3COCCO3)cc1=O)CCc1cc(N(C)C(=O)C3CC3)ccc1-2` [Compound 73, N-[4-[[(2S)-1,4-dioxan-2-yl]methoxy]-1-methyl-2-oxo-6,7-dihydrobenzo[a]quinolizin-9-yl]-N-methyl-cyclopropanecarboxamide] registered an IC50 of 100 to 500 nM.
`Cc1c2n(c(OC[C@@H]3COCCO3)cc1=O)CCc1cc(C3=CCN(C(=O)OC(C)(C)C)CC3)ccc1-2` [Compound 74, tert-butyl 4-[4-[[(2S)-1,4-dioxan-2-yl]methoxy]-1-methyl-2-oxo-6,7-dihydrobenzo[a]qunolizin-9-yl]-3,6-dihydro-2H-pyridine-1-carboxylate]: the IC50 was 0.01 to 100 nM.
`Cc1c2n(c(OC[C@@H]3COCCO3)cc1=O)CCc1cc(C3CCN(C(=O)OC(C)(C)C)CC3)ccc1-2` [Compound 75, tert-butyl 4-[4-[[(2S)-1,4-dioxan-2-yl]methoxy]-1-methyl-2-oxo-6,7-dihydrobenzo[a]quinolizin-9-yl]piperidine-1-carboxylate] returned an IC50 of 0.01 to 100 nM.
Regarding `Cc1c2n(c(OC[C@@H]3COCCO3)cc1=O)CCc1cc(C(=O)NC3CC3)ccc1-2` [Compound 84, N-cyclopropyl-4-[[(2S)-1,4-dioxan-2-yl]methoxy]-1-methyl-2-oxo-6,7-dihydrobenzo[a]quinolizine-9-carboxamide], the IC50 was greater than 1000 nM.
The same measure for `Cc1c2n(c(OC[C@@H]3COCCO3)cc1=O)CCc1cc(O)ccc1-2` [Compound 85, 4-[[(2S)-1,4-dioxan-2-yl]methoxy]-9-hydroxy-1-methyl-6,7-dihydrobenzo[a]quinolizin-2-one]: 100 to 500 nM; for `Cc1c2n(c(OC[C@@H]3COCCO3)cc1=O)CCc1cc(N3CC4(COC4)C3)ccc1-2` [Compound 87, 4-[[(2S)-1,4-dioxan-2-yl]methoxy]-1-methyl-9-(6-oxa-2-azaspiro[3.3]heptan-2-yl)-6,7-dihydrobenzo[a]quinolizin-2-one]: 500 to 1000 nM; for `Cc1c2n(c(OC[C@@H]3COCCO3)cc1=O)CCc1cc(C(=O)N(C)C3CC3)ccc1-2` [Compound 88, N-cyclopropyl-4-[[(2)S-1,4-dioxan-2-yl]methoxy]-N,1-dimethyl-2-oxo-6,7-dihydrobenzo[a]quinolizine-9-carboxamide]: greater than 1000 nM.
Compound `COc1ccc2c(c1)CCn1c(OC[C@@H]3COCCO3)cc(=O)c(C)c1-2` [Compound 89, 4-[[(2S)-1,4-dioxan-2-yl]methoxy]-9-methoxy-1-methyl-6,7-dihydrobenzo[a]quinolizin-2-one] came in with an IC50 of 0.01 to 100 nM.
With `Cc1c2n(c(OC[C@@H]3COCCO3)cc1=O)CCc1cc(N3CC(C(C)(C)O)C3)ccc1-2` [Compound 92, 4-[[(2S)-1,4-dioxan-2-yl]methoxy]-9-[3-(1-hydroxy-1-methyl-ethyl)azetidin-1-yl]-1-methyl-6,7-dihydrobenzo[a]quinolizin-2-one], the IC50 was in the range of 100 to 500 nM.
Next, `Cc1c2n(c(OC[C@@H]3COCCO3)cc1=O)CCc1cc(N3CC(S(C)(=O)=O)C3)ccc1-2` [Compound 94, 4-[[(2S)-1,4-dioxan-2-yl]methoxy]-1-methyl-9-(3-methylsulfonylazetidin-1-yl)-6,7-dihydrobenzo[a]quinolizin-2-one]: 500 to 1000 nM.
With `Cc1c2n(c(OC[C@@H]3COCCO3)cc1=O)CCc1cc(N3CC(C)(C)C3)ccc1-2` [Compound 96, 9-(3,3-dimethylazetidin-1-yl)-4-[[(2S)-1,4-dioxan-2-yl]methoxy]-1-methyl-6,7-dihydrobenzo[a]quinolizin-2-one], the IC50 lay in the range of 0.01 to 100 nM.
Compound `COC(=O)C1CN(c2ccc3c(c2)CCn2c(OC[C@@H]4COCCO4)cc(=O)c(C)c2-3)C1` [Compound 97] returned an IC50 of 100 to 500 nM.
Next, `Cc1c2n(c(OC[C@@H]3COCCO3)cc1=O)CCc1cc(-c3cccnc3)ccc1-2` [Compound 98, 4-[[(2S)-1,4-dioxan-2-yl]methoxy]-1-methyl-9-(3-pyridyl)-6,7-dihydrobenzo[a]quinolizin-2-one]: 100 to 500 nM.
Next, `Cc1c2n(c(OC[C@@H]3COCCO3)cc1=O)CCc1cc(-c3cccc(F)c3)ccc1-2` [Compound 99, 4-[[(2S)-1,4-dioxan-2-yl]methoxy]-9-(3-fluorophenyl)-1-methyl-6,7-dihydrobenzo[a]quinolizin-2-one]: 0.01 to 100 nM.
Turning to `Cc1c2n(c(OC[C@@H]3COCCO3)cc1=O)CCc1cc(-c3ccncc3)ccc1-2` [Compound 100, 4-[[(2S)-1,4-dioxan-2-yl]methoxy]-1-methyl-9-(4-pyridyl)-6,7-dihydrobenzo[a]quinolizin-2-one], the IC50 fell in the range of 0.01 to 100 nM.
As for `Cc1c2n(c(OC[C@@H]3COCCO3)cc1=O)CCc1cc(-c3ccccn3)ccc1-2` [Compound 101, 4-[[(2S)-1,4-dioxan-2-yl]methoxy]-1-methyl-9-(2-pyridyl)-6,7-dihydrobenzo[a]quinolizin-2-one], the IC50 is 0.01 to 100 nM.
`Cc1cccnc1-c1ccc2c(c1)CCn1c(OC[C@@H]3COCCO3)cc(=O)c(C)c1-2` [Compound 102, 4-[[(2S)-1,4-dioxan-2-yl]methoxy]-1-methyl-9-(3-methyl-2-pyridyl)-6,7-dihydrobenzo[a]quinolizin-2-one] came in with an IC50 of 0.01 to 100 nM.
